Source: ChEMBL document CHEMBL5614442, “Discovery, synthesis and biological evaluation of novel isoquinoline derivatives as potent indoleamine 2, 3-dioxygenase 1 and tryptophan 2, 3-dioxygenase dual inhibitors” (Eur J Med Chem, 2024)
Values belong to the molecule of their own block, whether it stands above or below them.

Columns and labels:
[1] = molecular target: T1, Indoleamine 2,3-dioxygenase 1 (Homo sapiens, UniProt P14902); assay: Inhibition of N-terminal His-tagged recombinant human IDO1 extracted from Escherichia coli Transetta (DE3) using L-tryptophan as substrate preincubated for 5 mins followed by substrate addition and measured after 1 hrs by absorbance based microplate reader
Target sequence in this assay (P14902 whole entry): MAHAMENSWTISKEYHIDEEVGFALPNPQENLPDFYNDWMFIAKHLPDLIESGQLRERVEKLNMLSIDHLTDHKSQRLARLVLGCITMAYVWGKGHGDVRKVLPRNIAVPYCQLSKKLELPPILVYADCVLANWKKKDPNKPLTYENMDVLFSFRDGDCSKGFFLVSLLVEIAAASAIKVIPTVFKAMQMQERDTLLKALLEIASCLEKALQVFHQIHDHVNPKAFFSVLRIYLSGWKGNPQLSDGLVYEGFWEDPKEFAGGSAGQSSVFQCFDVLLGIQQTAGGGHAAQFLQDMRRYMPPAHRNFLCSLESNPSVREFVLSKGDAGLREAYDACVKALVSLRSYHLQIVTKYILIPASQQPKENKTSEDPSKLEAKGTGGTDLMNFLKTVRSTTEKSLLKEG

[2] = molecular target: T2, Tryptophan 2,3-dioxygenase (Homo sapiens, UniProt P48775)
Target sequence in this assay (P48775 whole entry): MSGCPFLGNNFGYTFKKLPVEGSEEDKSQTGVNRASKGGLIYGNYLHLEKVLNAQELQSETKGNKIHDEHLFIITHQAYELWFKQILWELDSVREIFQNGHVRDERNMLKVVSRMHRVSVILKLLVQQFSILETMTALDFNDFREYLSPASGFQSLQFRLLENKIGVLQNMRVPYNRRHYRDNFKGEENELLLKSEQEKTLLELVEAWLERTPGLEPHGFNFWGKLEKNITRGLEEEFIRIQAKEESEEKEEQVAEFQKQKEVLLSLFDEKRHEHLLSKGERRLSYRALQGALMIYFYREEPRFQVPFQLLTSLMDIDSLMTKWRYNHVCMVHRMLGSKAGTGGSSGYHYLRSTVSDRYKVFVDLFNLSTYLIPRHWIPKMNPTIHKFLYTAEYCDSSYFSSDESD

[3] = molecular target: T2, Tryptophan 2,3-dioxygenase; assay: Inhibition of TDO (unknown origin)
Target sequence in this assay (P48775 whole entry): as above

[4] = molecular target: T1, Indoleamine 2,3-dioxygenase 1; assay: Inhibition of IDO1 (unknown origin)
Target sequence in this assay (P14902 whole entry): as the sequence (P14902 whole entry) above

[5] = molecular target: T1, Indoleamine 2,3-dioxygenase 1; assay: Inhibition of IDO1 in IFN-gamma induced human HeLa cells using L-tryptophan as substrate incubated for 24 hrs by absorbance based microplate analysis; format: cell-based
Target sequence in this assay (P14902 whole entry): as above

[6] = molecular target: T2, Tryptophan 2,3-dioxygenase; remark: listed apart in the source
Target sequence in this assay (P48775 whole entry): as the sequence (P48775 whole entry) above

[7] = Tmax in male Sprague-Dawley rat at 100 mg/kg, po measured after 8 hrs by LC-MS analysis; format: ADME, organism-based; conditions: in vivo
[8] = Cmax in male Sprague-Dawley rat at 20 mg/kg, ip measured after 8 hrs by LC-MS analysis; format: ADME, organism-based; conditions: in vivo
[9] = Clearance in male Sprague-Dawley rat at 20 mg/kg, ip measured after 8 hrs by LC-MS analysis; format: ADME, organism-based; conditions: in vivo
[10] = Volume of distribution in male Sprague-Dawley rat at 20 mg/kg, ip measured after 8 hrs by LC-MS analysis; format: ADME, organism-based; conditions: in vivo
[11] = molecular target: T1, Indoleamine 2,3-dioxygenase 1; conditions: dose 0.78-25 µM
Target sequence in this assay (P14902 whole entry, looked up): as the sequence (P14902 whole entry) above

B16-F10 [12] = assay: Antitumor activity against mouse B16-F10 cells implanted in male C57BL/6 mouse model assessed as suppression of tumor growth administered intraperitoneally once daily for 14 days; format: functional, cell-based; conditions: dose 25-100 mg/kg, route ip, time 14.0 day
[13] = Half-life in male Sprague-Dawley rat at 100 mg/kg, po measured after 8 hrs by LC-MS analysis; format: ADME, organism-based; conditions: in vivo
HeLa = assay: Cytotoxicity against human HeLa cells assessed as reduction in cell viability at effective concentration incubated for 24 hrs by CCK8 assay; format: toxicity, cell-based
[14] = Toxicity in male C57BL/6 mouse implanted with mouse B16-F10 cells assessed as effect on lung morphology at 25 to 100 mg/kg, ip administered once daily for 14 days by H and E staining based analysis; format: organism-based; conditions: in vivo, 336 h, dose 25-100 mg/kg, time 14 day
[15] = AUC (0 to t) in male Sprague-Dawley rat at 20 mg/kg, ip measured after 8 hrs by LC-MS analysis; format: ADME, organism-based; conditions: in vivo
[16] = Cmax in male Sprague-Dawley rat at 2 mg/kg, iv measured after 8 hrs by LC-MS analysis; format: ADME, organism-based; conditions: in vivo
[17] = Toxicity in male C57BL/6 mouse implanted with mouse B16-F10 cells assessed as effect on heart morphology at 25 to 100 mg/kg, ip administered once daily for 14 days by H and E staining based analysis; format: organism-based; conditions: in vivo, 336 h, dose 25-100 mg/kg, time 14 day
[18] = molecular target: T1, Indoleamine 2,3-dioxygenase 1; assay: Binding affinity to recombinant human IDO1 assessed as dissociation rate constant at 0.78 to 25 uM by SPR analysis
Target sequence in this assay (P14902 whole entry): as above

[19] = molecular target: T2, Tryptophan 2,3-dioxygenase; remark: listed apart in the source
Target sequence in this assay (P48775 whole entry): as the sequence (P48775 whole entry) above

[20] = Volume of distribution in male Sprague-Dawley rat at 2 mg/kg, iv measured after 8 hrs by LC-MS analysis; format: ADME, organism-based; conditions: in vivo
[21] = AUC (0 to infinity) in male Sprague-Dawley rat at 20 mg/kg, ip measured after 8 hrs by LC-MS analysis; format: ADME, organism-based; conditions: in vivo
HEK-293T = assay: Cytotoxicity against HEK293T cells assessed as reduction in cell viability at effective concentration incubated for 24 hrs by CCK8 assay; format: toxicity, cell-based; conditions: human
[22] = Bioavailability in male Sprague-Dawley rat at 20 mg/kg, ip measured after 8 hrs by LC-MS analysis; format: ADME, organism-based; conditions: in vivo
[23] = Half-life in male Sprague-Dawley rat at 20 mg/kg, ip measured after 8 hrs by LC-MS analysis; format: ADME, organism-based; conditions: in vivo
B16-F10 [24] = assay: Cytotoxicity against mouse B16-F10 cells assessed as reduction in cell viability at effective concentration incubated for 24 hrs by CCK8 assay; format: toxicity, cell-based; conditions: b16-f10, 24 h
[25] = molecular target: T1, Indoleamine 2,3-dioxygenase 1; assay: Binding affinity to recombinant human IDO1 assessed as equilibrium dissociation constant by SPR analysis
Target sequence in this assay (P14902 whole entry): as the sequence (P14902 whole entry) above

[26] = Oral bioavailability in male Sprague-Dawley rat at 100 mg/kg measured after 8 hrs by LC-MS analysis; format: ADME, organism-based; conditions: in vivo
U-87 MG = assay: Cytotoxicity against human U87 cells assessed as reduction in cell viability at effective concentration incubated for 24 hrs by CCK8 assay; format: toxicity, cell-based; conditions: u-87mg atcc
[27] = AUC (0 to infinity) in male Sprague-Dawley rat at 2 mg/kg, iv measured after 8 hrs by LC-MS analysis; format: ADME, organism-based; conditions: in vivo
[28] = AUC (0 to t) in male Sprague-Dawley rat at 2 mg/kg, iv measured after 8 hrs by LC-MS analysis; format: ADME, organism-based; conditions: in vivo
[29] = AUC (0 to infinity) in male Sprague-Dawley rat at 100 mg/kg, po measured after 8 hrs by LC-MS analysis; format: ADME, organism-based; conditions: in vivo
[30] = Clearance in male Sprague-Dawley rat at 2 mg/kg, iv measured after 8 hrs by LC-MS analysis; format: ADME, organism-based; conditions: in vivo
[31] = Half-life in male Sprague-Dawley rat at 2 mg/kg, iv measured after 8 hrs by LC-MS analysis; format: ADME, organism-based; conditions: in vivo
[32] = Volume of distribution in male Sprague-Dawley rat at 100 mg/kg, po measured after 8 hrs by LC-MS analysis; format: ADME, organism-based; conditions: in vivo
[33] = AUC (0 to t) in male Sprague-Dawley rat at 100 mg/kg, po measured after 8 hrs by LC-MS analysis; format: ADME, organism-based; conditions: in vivo
[34] = Tmax in male Sprague-Dawley rat at 2 mg/kg, iv measured after 8 hrs by LC-MS analysis; format: ADME, organism-based; conditions: in vivo
[35] = Toxicity in male C57BL/6 mouse implanted with mouse B16-F10 cells assessed as effect on liver morphology at 25 to 100 mg/kg, ip administered once daily for 14 days by H and E staining based analysis; format: organism-based; conditions: in vivo, 336 h, dose 25-100 mg/kg, time 14 day
[36] = Clearance in male Sprague-Dawley rat at 100 mg/kg, po measured after 8 hrs by LC-MS analysis; format: ADME, organism-based; conditions: in vivo
[37] = Tmax in male Sprague-Dawley rat at 20 mg/kg, ip measured after 8 hrs by LC-MS analysis; format: ADME, organism-based; conditions: in vivo
[38] = Toxicity in male C57BL/6 mouse implanted with mouse B16-F10 cells assessed as effect on kidney morphology at 25 to 100 mg/kg, ip administered once daily for 14 days by H and E staining based analysis; format: organism-based; conditions: in vivo, 336 h, dose 25-100 mg/kg, time 14 day
[39] = Cmax in male Sprague-Dawley rat at 100 mg/kg, po measured after 8 hrs by LC-MS analysis; format: ADME, organism-based; conditions: in vivo
[40] = Toxicity in male C57BL/6 mouse implanted with mouse B16-F10 cells assessed as body weight loss at 25 to 100 mg/kg, ip administered once daily for 14 days; format: organism-based; conditions: in vivo, 336 h, dose 25-100 mg/kg, time 14 day
[41] = Toxicity in male C57BL/6 mouse implanted with mouse B16-F10 cells assessed as effect on spleen morphology at 25 to 100 mg/kg, ip administered once daily for 14 days by H and E staining based analysis; format: organism-based; conditions: in vivo, 336 h, dose 25-100 mg/kg, time 14 day
[42] = molecular target: T2, Tryptophan 2,3-dioxygenase; conditions: dose 0.78-25 µM
Target sequence in this assay (P48775 whole entry, looked up): as the sequence (P48775 whole entry) above

SMILES: COc1ccc2cc(-c3ccc(NC(=O)c4ccc(C(F)(F)F)cc4)cc3)ncc2c1O
- IC50 [1]: > 100 µM
- IC50 [2]: 3.25 µM

SMILES: COc1ccc2cc(-c3ccc4ncsc4c3)ncc2c1OC
- IC50 [1]: > 100 µM
- IC50 [2]: > 100 µM

SMILES: COc1ccc2cc3[n+](cc2c1OC)CCc1cc2c(cc1-3)OCO2 [BERBERINE]
- IC50 [3]: 0.03 µM
- IC50 [4]: 0.26 µM

SMILES: COc1ccc2cc(-c3ccc(NC(=O)c4ccc(C)cc4)cc3)ncc2c1O
- IC50 [1]: > 100 µM
- IC50 [2]: 45.3 µM

SMILES: COc1ccc2cc(-c3ccc(Br)cc3)ncc2c1OC
- IC50 [1]: 78.6 µM
- IC50 [2]: 34.3 µM

SMILES: COc1ccc2cc(-c3ccc(NC(=O)c4ccc(F)cc4)cc3)ncc2c1O
- IC50 [1]: > 100 µM
- IC50 [2]: > 100 µM

SMILES: COc1ccc2cc(-c3ccc(C)cc3)ncc2c1OC
- IC50 [1]: > 100 µM
- IC50 [2]: > 100 µM

SMILES: COc1ccc(-c2ncc3c(O)c(OC)ccc3n2)cc1
- IC50 [1]: > 100 µM
- IC50 [2]: > 100 µM

SMILES: COc1ccc2cc(-c3cccnc3)ncc2c1OC
- IC50 [1]: > 100 µM
- IC50 [2]: > 100 µM

Continued by falling IC50 [1], values first:

- IC50 [1]: 70.5 µM
- IC50 [2]: 25 µM
SMILES: Oc1cccc2cc(-c3ccccc3)ncc12

- IC50 [1]: 50.5 µM
- IC50 [2]: 14.3 µM
SMILES: COc1ccc2cc(-c3ccc(NC(=O)Nc4ccccc4)cc3)ncc2c1O

- IC50 [1]: 21 µM
- IC50 [2]: 1.02 µM
SMILES: COc1ccc2cc(-c3cccs3)ncc2c1O

- IC50 [1]: 15.4 µM
- IC50 [2]: 7.97 µM
SMILES: COc1ccc2cc(-c3ccc(NS(=O)(=O)N4CCCCC4)cc3)ncc2c1O

- IC50 [1]: 11.2 µM
- IC50 [2]: 2.9 µM
SMILES: COc1ccc2cc(-c3cccs3)ncc2c1OC

- IC50 [1]: 10.1 µM
- IC50 [5]: > 30 µM
- IC50 [6]: 22.3 µM
- IC50 [2]: 0.25 µM
SMILES: COc1ccc2cc(-c3ccc(C(=O)Nc4ccccc4)cc3)ncc2c1O

- IC50 [1]: 2.81 µM
- IC50 [2]: 1.2 µM
SMILES: COc1ccc2cc(-c3ccc(NC(=O)C(C)(C)C)cc3)ncc2c1O

- IC50 [1]: 1.24 µM
- IC50 [5]: 23 µM
- IC50 [6]: 14.8 µM
- IC50 [2]: 0.2 µM
SMILES: COc1ccc2cc(-c3ccc(NS(C)(=O)=O)cc3)ncc2c1O

- IC50 [1]: 0.89 µM
- IC50 [5]: 17.1 µM
- IC50 [6]: 24 µM
- IC50 [2]: 0.24 µM
SMILES: COc1ccc2cc(-c3ccccc3)ncc2c1O

- IC50 [1]: 0.71 µM
- IC50 [5]: 15.8 µM
- IC50 [6]: > 30 µM
- IC50 [2]: 0.45 µM
SMILES: COc1ccc(-c2cc3ccc(OC)c(O)c3cn2)cc1

- Tmax [7]: 1.33 h
- Cmax [8]: 11400 ng/mL
- CL/F [9]: 50 mL/min/kg
- IC50 [1]: 0.31 µM
- Vd [10]: 5.17 L/kg
- Ka [11]: 4.69 10^4/Ms
- half-life [13]: 2.8 h
- AUC(0-t) at 8 h [15]: 6690 ng·h/mL
- Cmax [16]: 3420 ng/mL
- koff [18]: 0.021 s⁻¹
- Kd [19]: 0.74 µM
- Vd [20]: 6.9 L/kg
- AUC(0-inf) [21]: 6660 ng·h/mL
- bioavailability [22]: 72.6%
- half-life [23]: 1.2 h
- Kd [25]: 0.45 µM
- bioavailability [26]: 61.9%
- AUC(0-inf) [27]: 917 ng·h/mL
- AUC(0-t) at 8 h [28]: 916 ng·h/mL
- AUC(0-inf) [29]: 28400 ng·h/mL
- clearance [30]: 37.6 mL/min/kg
- half-life [31]: 2.14 h
- Vd [32]: 14.376 L/kg
- IC50 [5]: 9.29 µM
- IC50 [6]: 7.23 µM
- AUC(0-t) at 8 h [33]: 23300 ng·h/mL
- Tmax [34]: 4.98 min
- CL/F [36]: 59.7 mL/min/kg
- Tmax [37]: 0.25 h
- Cmax [39]: 5190 ng/mL
- IC50 [2]: 0.08 µM
- Ka [42]: 4.9 10^4/Ms
SMILES: COc1ccc2cc(-c3ccc(NS(=O)(=O)C(F)(F)F)cc3)ncc2c1O
- Activity (B16-F10 [12]): Dose-Dependent Effect
- Activity (HeLa): Non-Toxic
- Activity [14]: Non-Toxic
- Activity [17]: Non-Toxic
- Activity (HEK-293T): Non-Toxic
- Activity (B16-F10 [24]): Non-Toxic
- Activity (U-87 MG): Non-Toxic
- Activity [35]: Non-Toxic
- Activity [38]: Non-Toxic
- Activity [40]: Non-Toxic
- Activity [41]: Non-Toxic
